Data taken from patent US20220218695A1, “COMBINATION OF AN ALPHA2-ADRENOCEPTOR SUBTYPE C (ALPHA-2C) ANTAGONISTS WITH A TASK1/3 CHANNEL BLOCKER FOR THE TREATMENT OF SLEEP APNEA” (Bayer Aktiengesellschaft, priority 2019, published 2022).

System: upper airway collapsibility in anaesthetized, spontaneously breathing pigs
Assay: pig model of obstructive sleep apnea (OSA): upper airway collapsibility under negative pressure
Type: in vivo, German Landrace pigs
From the text: The therapeutic potential of the combination of an α2-Adrenoceptor subtype C (alpha-2C) antagonists with a TASK1/3 channel blocker according to the present invention in sleep apnea can be assessed preclinically in a pig model of obstructive sleep apnea (OSA).
Using negative pressure, it is possible to induce collapse and thus obstruction of the upper respiratory tract in anaesthetized, spontaneously breathing pigs (Wirth K. J. et al., Sleep 36(5)(2013) pp. 699-708).
German Landrace pigs are used for the model. The pigs are anaesthetized and tracheotomized. Two tracheal cannulas are inserted into the trachea, one into the rostral part and the other into the caudal part of the trachea. Using a connection piece, the rostral cannula is connected to a tube to the negative pressure device and to the distal tracheal cannula. The distal tracheal cannula is additionally connected to a tube with an open end to atmosphere via a connection piece that served for free tracheal breathing, circumventing the upper airway. By appropriate opening and clamping of those tubes breathing can be switched from nasal breathing to breathing through the caudal tracheal cannula, circumventing the upper airway, and the (isolated) upper airway can be connected to the negative pressure device, causing airflow in the inspiratory direction.
At certain points in time, the collapsibility of the upper respiratory tract is tested by having the pig breathe via the caudal cannula and applying negative pressures of −50, −100 and −150 cm water head (cm H2O) to the upper respiratory tract. This causes the upper respiratory tract to collapse, which manifests itself in an interruption of the airflow and a pressure drop in the tube system. This test is conducted prior to the administration of the test substance and at certain intervals after the administration of the test substance. An appropriately effective test substance can prevent this collapse of the respiratory tract in the inspiratory phase.

[1] = 0 min (time point of intranasal administration of 0.3 μg; baseline), TASK1/3 blocker alone
[2] = 10 min after intranasal administration of 0.3 μg, TASK1/3 blocker alone
[3] = 30 min after intranasal administration of 0.3 μg, TASK1/3 blocker alone
[4] = 60 min after intranasal administration of 0.3 μg, TASK1/3 blocker alone
[5] = alpha-2C antagonist alone, 90 min after bolus injection […] and start of infusion 0.005 μg/kg/h
[6] = 0 min (time point of i.v. bolus […] and start of infusion 0.005 μg/kg/h; baseline)
[7] = 30 min after i.v. bolus […] and start of infusion 0.005 μg/kg/h, alpha-2C antagonist alone
[8] = 60 min after i.v. bolus […] and start of infusion 0.005 μg/kg/h, alpha-2C antagonist alone
[9] = 90 min after i.v. bolus […] and start of infusion 0.005 μg/kg/h, time point of nasal application of TASK1/3 channel blocker

COc1cccc(C(=O)N2CCN(Cc3c(-c4ccc(Cl)cc4)nc4ccccn34)CC2)n1 [(4-{[2-(4-Chlorophenyl)imidazo[1,2-a]pyridin-3-yl]methyl}piperazin-1-yl)(6-methoxypyridin-2-yl)methanone] was tested, and the “effectiveness of dose on upper airway collapsibility” value (TASK1/TASK3 channel blocker alone, 0.3 μg intranasal) was “non effective dose”, the “Percent pigs without collaps −50 cm H2O, %” value [1] was 0% and the “Percent pigs without collaps −50 cm H2O, %” value [2] was 0%. For the same compound, the “Percent pigs without collaps −50 cm H2O, %” value [3] was 0%, the “Percent pigs without collaps −50 cm H2O, %” value [4] was 0% and the “Percent pigs without collaps −100 cm H2O, %” value [1] was 0%. The “Percent pigs without collaps −100 cm H2O, %” value [2] was 0%, the “Percent pigs without collaps −100 cm H2O, %” value [3] was 0% and the “Percent pigs without collaps −100 cm H2O, %” value [4] was 0%. The “Percent pigs without collaps −150 cm H2O, %” value [1] was 0%, the “Percent pigs without collaps −150 cm H2O, %” value [2] was 0% and the “Percent pigs without collaps −150 cm H2O, %” value [3] was 0%. For the same compound, the “Percent pigs without collaps −150 cm H2O, %” value [4] was 0%.

COC[C@@]1(C)CCCN2CCc3c(oc4ccccc34)[C@@H]21 [(1S,12bS)-1-(methoxymethyl)-1-methyl-1,3,4,6,7,12b-hexahydro-2H-[1]benzofuro[2,3-a]quinolizine] was tested, and the “upper airway collapsibility at negative pressures of −50 cm head (cm H2O)” value [5] was “only inhibited”, the “upper airway collapsibility at negative pressures of −100 and −150 cm head (cm H2O)” value [5] was “induced” and the “effectiveness of dose on upper airway collapsibility” value (alpha-2C antagonist alone, i.v. bolus […] + infusion 0.005 μg/kg/h) was “non effective dose”. The “inhibited upper airway collapsibility at all negative pressures of −50, −100 and −150 cm head (cm H2O)” value (alpha-2C antagonist alone, i.v. bolus […] followed by i.v. infusion 0.005 μg/kg/h for four hours) was “at no time point”, the “Percent pigs without collaps −50 cm H2O, %” value [6] was 0% and the “Percent pigs without collaps −50 cm H2O, %” value [7] was 0%. For the same compound, the “Percent pigs without collaps −50 cm H2O, %” value [8] was 100%, the “Percent pigs without collaps −50 cm H2O, %” value [9] was 100% and the “Percent pigs without collaps −100 cm H2O, %” value [6] was 0%. The “Percent pigs without collaps −100 cm H2O, %” value [7] was 0%, the “Percent pigs without collaps −100 cm H2O, %” value [8] was 0% and the “Percent pigs without collaps −100 cm H2O, %” value [9] was 0%. For the same compound, the “Percent pigs without collaps −150 cm H2O, %” value [6] was 0%, the “Percent pigs without collaps −150 cm H2O, %” value [7] was 0% and the “Percent pigs without collaps −150 cm H2O, %” value [8] was 0%. The “Percent pigs without collaps −150 cm H2O, %” value [9] was 0%.
